In US20250115600A1, “COVALENT MODIFIERS OF AKT1 AND USES THEREOF” (Terremoto Biosciences, Inc., priority 2022, published 2025):

Assays:
Assay in all cases: Live cell target engagement (NanoBRET) in HEK293 cells
Format in all cases: cell-based
AKT2 = AKT2 (Homo sapiens (Human), UniProt P31751); details: HEK293, 2 hours at 37° C.
AKT1 WT = AKT1 WT (Homo sapiens (Human), UniProt P31749); details: HEK293, 2 hours at 37° C.
AKT1 E17K = AKT1 E17K (Homo sapiens (Human), UniProt P31749, E17K); details: for IC50: HEK293, 2 hours at 37° C.
AKT1 E17K, sequence (P31749 whole entry E17K): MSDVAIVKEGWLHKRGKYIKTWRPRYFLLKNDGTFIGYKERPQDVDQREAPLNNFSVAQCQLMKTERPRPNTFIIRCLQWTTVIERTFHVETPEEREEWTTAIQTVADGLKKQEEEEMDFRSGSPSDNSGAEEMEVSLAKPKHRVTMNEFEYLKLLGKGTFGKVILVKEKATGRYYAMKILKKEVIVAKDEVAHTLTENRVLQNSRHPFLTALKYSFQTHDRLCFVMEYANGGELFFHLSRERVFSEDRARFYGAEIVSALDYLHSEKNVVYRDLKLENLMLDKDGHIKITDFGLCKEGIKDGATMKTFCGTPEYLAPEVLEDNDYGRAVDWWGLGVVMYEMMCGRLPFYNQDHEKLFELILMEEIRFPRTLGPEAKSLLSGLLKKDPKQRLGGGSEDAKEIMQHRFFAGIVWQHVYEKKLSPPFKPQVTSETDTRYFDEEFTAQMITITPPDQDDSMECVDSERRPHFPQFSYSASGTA

AKT1 WT, sequence (P31749 whole entry): as the sequence (P31749 whole entry E17K) above, with K17E counted along it
AKT2, sequence (P31751 whole entry): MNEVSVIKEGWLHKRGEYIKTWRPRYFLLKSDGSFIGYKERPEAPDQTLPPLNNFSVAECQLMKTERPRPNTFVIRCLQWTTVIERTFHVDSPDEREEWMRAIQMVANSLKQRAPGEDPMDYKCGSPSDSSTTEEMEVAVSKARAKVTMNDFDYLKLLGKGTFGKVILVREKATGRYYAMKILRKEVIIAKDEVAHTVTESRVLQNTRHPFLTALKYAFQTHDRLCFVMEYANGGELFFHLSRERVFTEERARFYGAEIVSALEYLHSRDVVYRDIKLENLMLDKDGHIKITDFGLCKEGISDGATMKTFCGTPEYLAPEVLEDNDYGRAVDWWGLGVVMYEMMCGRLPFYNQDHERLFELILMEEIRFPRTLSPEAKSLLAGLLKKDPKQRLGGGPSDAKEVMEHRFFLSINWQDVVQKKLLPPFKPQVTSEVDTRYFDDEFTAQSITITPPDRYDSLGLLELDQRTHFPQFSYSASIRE

SMILES	IC50 (AKT2) [µM]	IC50 (AKT1 WT) [µM]	AKT1 E17K IC50: Selectivity vs AKT1 WT (AKT1 E17K)	AKT1 E17K IC50: Selectivity vs AKT2 (AKT1 E17K)	IC50 (AKT1 E17K) [µM]
CC(=O)N(C)C1CCN(c2cccc(-c3ccc4nc(-c5cccnc5N)n(-c5ccc(CNCCc6ccc(C=O)c(O)c6)cc5)c4n3)c2)CC1 [Compound 109, N-(1-{3-[2-(2-aminopyridin-3-yl)-3-[4-({[2-(4-formyl-3-hydroxyphenyl)ethyl]amino}methyl)phenyl]imidazo[4,5-b]pyridin-5-yl]phenyl}piperidin-4-yl)-N-methylacetamide]	< 0.1	< 0.1	0.63	0.6	< 0.1
Nc1ncccc1-c1nc2ccc(-c3ccccc3)nc2n1-c1ccc(CCNC(=O)c2ccc(C=O)c(O)c2)cc1 [Compound 111, N-(2-{4-[2-(2-aminopyridin-3-yl)-5-phenylimidazo[4,5-b]pyridin-3-yl]phenyl}ethyl)-4-formyl-3-hydroxybenzamide]	0.1 to 0.5	< 0.1	0.83	6.3	< 0.1
Nc1ncccc1-c1nc2ccc(-c3ccccc3)nc2n1-c1ccc(C(=O)NCCc2ccc(C=O)c(O)c2)cn1 [Compound 112, 6-[2-(2-aminopyridin-3-yl)-5-phenylimidazo[4,5-b]pyridin-3-yl]-N-[2-(4-formyl-3-hydroxyphenyl)ethyl]pyridine-3-carboxamide]	> 0.5	> 0.5	1	1	> 0.5
Nc1ncccc1-c1nc2ccc(-c3cccnc3)nc2n1-c1ccc(CNCCc2ccc(C=O)c(O)c2)cc1 [Compound 113, 4-(2-((4-(2-(2-aminopyridin-3-yl)-5-(pyridin-3-yl)-3H-imidazo[4,5-b]pyridin-3-yl)benzyl)amino)ethyl)-2-hydroxybenzaldehyde]	> 0.5	0.1 to 0.5	2.5	57	< 0.1
CC(NC(=O)Cc1ccc(O)c(C=O)c1)c1ccc(-n2c(-c3cccnc3N)nc3ccc(-c4ccccc4)nc32)cc1 (stereo not drawn) [Compound 115, N-(1-(4-(2-(2-aminopyridin-3-yl)-5-phenyl-3H-imidazo[4,5-b]pyridin-3-yl)phenyl)ethyl)-2-(3-formyl-4-hydroxyphenyl)acetamide]	0.1 to 0.5	0.1 to 0.5	1.2	4.9	< 0.1
CC(NC(=O)Cc1ccc(C=O)c(O)c1)c1ccc(-n2c(-c3cccnc3N)nc3ccc(-c4ccccc4)nc32)cc1 (stereo not drawn) [Compound 116, N-(1-{4-[2-(2-aminopyridin-3-yl)-5-phenylimidazo[4,5-b]pyridin-3-yl]phenyl}ethyl)-2-(4-formyl-3-hydroxyphenyl)acetamide]	0.1 to 0.5	< 0.1	1.9	10	< 0.1
Nc1ncccc1-c1nc2ccc(-c3ccccc3)nc2n1-c1ccc(NC(=O)CCc2ccc(C=O)c(O)c2)cc1 [Compound 118, N-(4-(2-(2-aminopyridin-3-yl)-5-phenyl-3H-imidazo[4,5-b]pyridin-3-yl)phenyl)-3-(4-formyl-3-hydroxyphenyl)propanamide]	0.1 to 0.5	< 0.1	1.6	29	< 0.1
Nc1ncccc1-c1nc2ccc(-c3ccncc3)nc2n1-c1ccc(CNCCc2ccc(C=O)c(O)c2)cc1 [Compound 119, 4-{2-[({4-[2-(2-aminopyridin-3-yl)-5-(pyridin-4-yl)imidazo[4,5-b]pyridin-3-yl]phenyl}methyl)amino]ethyl}-2-hydroxybenzaldehyde]	> 0.5	0.1 to 0.5	2.9	18	< 0.1
Nc1ncccc1-c1nc2ccc(-c3ccccc3)nc2n1-c1ccc(CNCCc2ccc(C=O)c(O)c2Cl)cc1 [Compound 120, 4-{2-[({4-[2-(2-aminopyridin-3-yl)-5-phenylimidazo[4,5-b]pyridin-3-yl]phenyl}methyl)amino]ethyl}-3-chloro-2-hydroxybenzaldehyde]	0.1 to 0.5	< 0.1	0.86	2.3	< 0.1
CC(=O)Nc1cccc(-c2ccc3nc(-c4cccnc4N)n(-c4ccc(CNCCc5ccc(C=O)c(O)c5)cc4)c3n2)c1 [Compound 121, N-{3-[2-(2-aminopyridin-3-yl)-3-[4-({[2-(4-formyl-3-hydroxyphenyl)ethyl]amino}methyl)phenyl]imidazo[4,5-b]pyridin-5-yl]phenyl}acetamide]	0.1 to 0.5	< 0.1	2	6.2	< 0.1
Nc1ncccc1-c1nc2ccc(-c3ccccc3)nc2n1-c1ccc(CNCCc2cc(O)c(C=O)c(F)c2)cc1 [Compound 123, 4-(2-((4-(2-(2-aminopyridin-3-yl)-5-phenyl-3H-imidazo[4,5-b]pyridin-3-yl)benzyl)amino)ethyl)-2-fluoro-6-hydroxybenzaldehyde]	0.1 to 0.5	< 0.1	1	2.2	< 0.1
Nc1ncccc1-c1nc2cc(-c3ccccc3)cnc2n1-c1ccc(CNCCc2ccc(C=O)c(O)c2)cc1 [Compound 124, 4-(2-((4-(2-(2-aminopyridin-3-yl)-6-phenyl-3H-imidazo[4,5-b]pyridin-3-yl)benzyl)amino)ethyl)-2-hydroxybenzaldehyde]	> 0.5	> 0.5	3.1	13	0.1 to 0.5
CC(NCCc1ccc(O)c(C=O)c1)c1ccc(-n2c(-c3cccnc3N)nc3ccc(-c4ccccc4)nc32)cc1 (stereo not drawn) [Compound 126, 5-(2-((1-(4-(2-(2-aminopyridin-3-yl)-5-phenyl-3H-imidazo[4,5-b]pyridin-3-yl)phenyl)ethyl)amino)ethyl)-2-hydroxybenzaldehyde]	0.1 to 0.5	< 0.1	5	12	< 0.1
CC(NCCc1ccc(C=O)c(O)c1)c1ccc(-n2c(-c3cccnc3N)nc3ccc(-c4ccccc4)nc32)cc1 (stereo not drawn) [Compound 127, 4v-(2-((1-(4-(2-(2-aminopyridin-3-yl)-5-phenyl-3H-imidazo[4,5-b]pyridin-3-yl)phenyl)ethyl)amino)ethyl)-2-hydroxybenzaldehyde]	0.1 to 0.5	< 0.1	2.6	7.7	< 0.1
Nc1ncccc1-c1nc2ccc(-c3ccccc3)nc2n1-c1ccc(CNCCc2cc(O)c(C=O)cc2F)cc1 [Compound 128, 4-(2-((4-(2-(2-aminopyridin-3-yl)-5-phenyl-3H-imidazo[4,5-b]pyridin-3-yl)benzyl)amino)ethyl)-5-fluoro-2-hydroxybenzaldehyde]	0.1 to 0.5	< 0.1	0.15	0.93	0.1 to 0.5
Nc1ncccc1-c1nc2ccc(-c3ccccc3)nc2n1-c1ccc(CNCCCc2ccc(O)c(C=O)c2)cc1 [Compound 129, 5-(3-((4-(2-(2-aminopyridin-3-yl)-5-phenyl-3H-imidazo[4,5-b]pyridin-3-yl)benzyl)amino)propyl)-2-hydroxybenzaldehyde]	< 0.1	< 0.1	0.51	2.5	< 0.1
Nc1ncccc1-c1nc2ccc(-c3ccccc3)nc2n1-c1ccc(CNCCCc2ccc(C=O)c(O)c2)cc1 [Compound 130, 4-(3-((4-(2-(2-aminopyridin-3-yl)-5-phenyl-3H-imidazo[4,5-b]pyridin-3-yl)benzyl)amino)propyl)-2-hydroxybenzaldehyde]	0.1 to 0.5	< 0.1	1.5	7	< 0.1
Nc1ncccc1-c1nc2ccc(-c3ccccc3)nc2n1-c1ccc(C(=O)NCCc2ccc(C=O)c(O)c2)cc1 [Compound 131, 4-(2-(2-aminopyridin-3-yl)-5-phenyl-3H-imidazo[4,5-b]pyridin-3-yl)-N-(4-formyl-3-hydroxyphenethyl)benzamide]	0.1 to 0.5	< 0.1	1.6	13	< 0.1
Nc1ncccc1-c1nc2ccc(-c3ccccc3)nc2n1-c1ccc(C2(NCCc3ccc(C=O)c(O)c3)CCC2)cc1 [Compound 134, 4-(2-((1-(4-(2-(2-aminopyridin-3-yl)-5-phenyl-3H-imidazo[4,5-b]pyridin-3-yl)phenyl)cyclobutyl)amino)ethyl)-2-hydroxybenzaldehyde]	> 0.5	> 0.5	2.3	4.3	> 0.5
Nc1ncccc1-c1nc2ccc(-c3ccccc3)nc2n1-c1ccc(CNCCc2ccc(O)c(C=O)c2)cc1 [Compound 135, 5-(2-((4-(2-(2-aminopyridin-3-yl)-5-phenyl-3H-imidazo[4,5-b]pyridin-3-yl)benzyl)amino)ethyl)-2-hydroxybenzaldehyde]	< 0.1	< 0.1	0.16	0.72	< 0.1
Nc1ncccc1-c1nc2ccc(-c3ccccc3)nc2n1-c1ccc(CN2CCC(c3ccc(O)c(C=O)c3)CC2)cc1 [Compound 136, 5-(1-(4-(2-(2-aminopyridin-3-yl)-5-phenyl-3H-imidazo[4,5-b]pyridin-3-yl)benzyl)piperidin-4-yl)-2-hydroxybenzaldehyde]	< 0.1	< 0.1	1.3	1.9	< 0.1
